Measured values from US20260345547A1, “USE OF DIHYDROQUERCETIN IN TREATING OCULAR SURFACE DISEASES” (HE UNIVERSITY SCHOOL OF CLINICAL MEDICINE, priority 2022, published 2026).
“And” between values parts separate entries of the source, which are not always exact repeats. Equal values may be shown once.

What was measured:
HCE cells = assay: MTS assay: proliferative and toxic effects of dihydroquercetin on HCE cells; assay type: cell-based, human; conditions: 24 h; for cell viability of HCE cells: compared to control group
Experimental: (§1) Human corneal epithelial cells were purchased from the American Type Culture Collection (ATCC). The cell medium used was high-sugar DMEM medium supplemented with 10% (V/V) fetal bovine serum, 100 U/mL penicillin, and 100 μg/mL gentamicin. The cells were cultured in an incubator containing 5% carbon dioxide at 37° C. Cells in the logarithmic growth phase were seeded into a 96-well plate at a density of 1.5×10^5 cells/mL, with 100 μL per well and 6 replicate wells per group. The cells were grouped into a normal cell group, a hydrogen peroxide model group, and intervention groups treated with dihydroquercetin at various concentrations. The assay was performed using an MTS kit (e.g., Promega), and absorbance was measured at 490 nm using a microplate reader.
(§2) Survival rate=survival rate of each group/survival rate of normal cell group×100%
(§3) Human corneal epithelial cells were purchased from the American Type Culture Collection (ATCC). The cell medium used was high-sugar DMEM medium supplemented with 10% (V/V) fetal bovine serum, 100 U/mL penicillin, and 100 μg/mL gentamicin. The cells were cultured in an incubator containing 5% carbon dioxide at 37° C. Cells in the logarithmic growth phase were seeded into a 96-well plate at a density of 1.5×10^5 cells/mL, with 100 μL per well and 6 replicate wells per group. After 24 h, the cells were treated with H2O2 or dihydroquercetin according to the experimental purpose. For color development, 20 μL of MTS solution was added to each well, and the cells were incubated for another 2-4 h. To measure the colorimetric results, the absorbance value of each well was read at the wavelength of 490 nm using an enzyme-linked immunosorbent assay reader. The results were recorded, and a cell growth curve was plotted with time as the abscissa and absorbance value as the ordinate.
Various concentrations of dihydroquercetin (0.01-600 μM) were applied to HCE cells, and 6 replicate wells were set for each group to ensure the reliability and accuracy of the experimental data. The proliferative effect of the drug on the cells was then assessed.

[1] = test system: HCE cells (H2O2-induced oxidative damage); assay: MTS assay: anti-oxidative damage effect on HCE cells with H2O2-induced damage; assay type: cell-based, human
Experimental: as §1, §2
as §3, with “For color development, 20 μL of MTS solution was added to each well, and the cells were incubated for another 2-4 h.” left out
The experiment included 8 groups: a normal control group, a H2O2 model group, and intervention groups treated with various concentrations of dihydroquercetin (0.1-200 μM)+H2O2. […] The survival rate of cells in each group was assessed by the MTS assay to evaluate the protective effect of dihydroquercetin against oxidative damage of HCE cells.

mouse model of dry eye [2] = assay: Tear secretion amount (phenol red cotton thread) in dry eye mice; assay type: in vivo, C57/BL6 mice; conditions: 5 μL drops twice daily, ocular, day 14 of modeling, compared to model control group, P<0.001
Source text: (§4) Out of 50 healthy 8-week-old female C57/BL6 mice, 30 were selected for the experiment. Five mice were randomly assigned to each group, resulting in a total of six groups: blank control group (N), model group (M), positive drug group (CsA), low concentration traditional Chinese medicine group (SL), medium concentration traditional Chinese medicine group (SM), and high concentration traditional Chinese medicine group (SH). During grouping, identification was marked on the mice's tails and cage cards, which included details such as the experiment name, experiment number, group designation, administration dosage, and administration schedule.
(§5) In this experiment, a mouse model of dry eye was established using an intelligent dry environment control system in combination with scopolamine injection. A two-step dehumidification method was used to control the humidity of the environment during the modeling process. Initially, a temperature-adjustable industrial dehumidifier was used to reduce the room humidity to 40%±5%. […]
The mice were restrained without anesthesia. […] The thread was then placed on a printable ruler, and the length of the red-stained portion was measured and recorded. The data were analyzed statistically using GraphPad Prism 8.0 software. […]

mouse model of dry eye [3] = assay: Tear film breakup time in dry eye mice; assay type: in vivo, C57/BL6 mice; conditions: treatment groups (0.03% and 0.3%), ocular; day 14 of modeling; compared to model control group, P<0.05
Source text: as §4, §5
The mice were restrained without anesthesia, and sodium fluorescein solution was instilled into their conjunctival sacs. […] The time until the appearance of a block spot due to tear film breakup was recorded. […] The data were analyzed statistically using GraphPad Prism 8.0 software. […]

mouse model of dry eye [4] = assay: Sodium fluorescein staining of cornea (corneal epithelial damage) in dry eye mice; assay type: in vivo, C57/BL6 mice; conditions: day 14 of modeling
Source text: as §4
In this experiment, a mouse model of dry eye was established using an intelligent dry environment control system in combination with scopolamine injection. A two-step dehumidification method was used to control the humidity of the environment during the modeling process. […]
The corneal morphology of experimental mice in each group was observed before modeling and 14 days after modeling. […] The sodium fluorescein-stained corneas of the mice were then illuminated with cobalt blue light, observed, imaged and recorded with a slit lamp. […] Sodium fluorescein residues on the corneal surface was scored and recorded. The data were analyzed statistically using GraphPad Prism 8.0 software.

[5] = test system: corneal neovascularization model in rabbits; assay: Corneal neovascularization after corneal alkali burn in rabbits; assay type: in vivo, New Zealand rabbits; conditions: 50 μL twice daily, ocular, 14 days after treatment, compared to model group; for corneal neovascularization area: P<0.01
Source text: […] 3-month-old healthy New Zealand rabbits, half male and half female, were randomly assigned to six groups, with each group containing six rabbits. The groups were designated as blank control group (N), model control group (M), positive drug group (LEV), low concentration dihydroquercetin group (E1), high concentration dihydroquercetin group (E2) and solvent control group (R). Identification was marked on the rabbits' ears and cage cards, which included details such as the experiment name, experiment number, group designation, administration dosage, and administration schedule.
In this experiment, the corneal neovascularization model in rabbits was established using a chemical injury method. The rabbits were generally anesthetized with an intravenous injection of 1% pentobarbital sodium administered via the marginal ear vein. […] A 6 mm diameter filter paper was soaked in a 1 mol/L NaOH solution for 1 minute. The soaked filter paper was then applied to the center of the cornea for 30 seconds, after which it was removed. The ocular surface and conjunctival sac were subsequently rinsed with physiological saline for 1 minute. Following the modeling procedure, levofloxacin was applied as eye drops to the modeled eye to prevent postoperative infection.
The route of administration was ocular, and treatment commenced the day before modeling. No drug was administered to the blank control group or model control group. In the positive drug group, 50 μL of levofloxacin was applied to the conjunctival sac. In the low concentration group, 50 μL of a 0.03% dihydroquercetin solution was applied, while in the high concentration group, 50 μL of a 0.3% dihydroquercetin solution was applied. All treatments were administered twice daily at 9:00 a.m. and 3:00 p.m.
Fourteen days after treatment, ocular surface inflammation and neovascularization were assessed in each experimental group. The area of neovascularization was imaged, recorded, and subsequently quantified. Data were analyzed statistically using GraphPad Prism 8.0 software.

[6] = test system: human corneal epithelial (HCE) cells; assay: MTS assay: survival rate of HCE cells treated with H2O2 (damage model); assay type: cell-based; conditions: 300 μM H2O2, 24 h, relative to normal cell group
Experimental: as §1, with “reader. […]” for “reader.”
Human corneal epithelial cells were purchased from the American Type Culture Collection (ATCC). […] To measure the colorimetric results, the absorbance value of each well was read at the wavelength of 490 nm using an enzyme-linked immunosorbent assay reader. The results were recorded, and a cell growth curve was plotted with time as the abscissa and absorbance value as the ordinate.
HCE cells were subcultured and seeded at 1.5×10^5 cells/mL, with 100 μL per well. […] To measure the colorimetric results, the absorbance value of each well was read at the wavelength of 490 nm using an enzyme-linked immunosorbent assay reader. […]

Compound: O=C1c2c(O)cc(O)cc2O[C@H](c2ccc(O)c(O)c2)[C@H]1O [dihydroquercetin]
- cell viability of HCE cells (HCE cells; 50 μM): significantly higher
- cell viability of HCE cells (HCE cells; 100 μM): significantly higher
- cell viability of HCE cells (HCE cells; 200 μM): significantly higher
- cell viability of HCE cells (HCE cells; 600 μM): significantly reduced
- concentration that has a proliferation effect on HCE cells (HCE cells; MTS assay): 25 to 200 µM and 50 to 200 µM
- concentration with toxic effect on HCE cells (HCE cells; MTS assay): 600 µM
- concentration offering protection against H2O2-induced oxidative stress damage in HCE cells ([1]; 300 μM H2O2, MTS assay): 25 to 200 µM
- cell survival rate, dihydroquercetin + H2O2 ([1]; 25-200 μM with 300 μM H2O2, compared to H2O2 model group, P<0.01): higher
- tear secretion (mouse model of dry eye [2]; high concentration group (E2), 0.3%): significantly increased
- tear secretion (mouse model of dry eye [2]; low concentration group (E1), 0.03%): significantly increased
- tear film breakup time (mouse model of dry eye [3]): increased significantly
- sodium fluorescein staining of cornea (morphology) (mouse model of dry eye [4]; compared to model control group): significant reduction in staining
- corneal epithelial damage score, sodium fluorescein staining (mouse model of dry eye [4]; treatment groups (0.03% and 0.3%), ocular, compared to model group, P<0.001): significant reduction in damage
- new blood vessels (slit lamp morphology) ([5]; high concentration, 0.3%): fewer new blood vessels
- corneal neovascularization area ([5]; high concentration, 0.3%): smaller
- new blood vessels (slit lamp morphology) ([5]; low concentration, 0.03%): fewer new blood vessels
- corneal neovascularization area ([5]; low concentration, 0.03%): smaller

Compound: OO [H2O2, hydrogen peroxide, reference compound]
- viability at 300 µM [6]: 49%
- cell survival rate, H2O2 model group ([1]; 300 μM H2O2, compared to control group, P<0.001): lower

Compound: C[C@H]1COc2c(N3CCN(C)CC3)c(F)cc3c(=O)c(C(=O)O)cn1c23 [levofloxacin, reference compound]
- new blood vessels (slit lamp morphology) [5]: fewer new blood vessels
- corneal neovascularization area [5]: smaller
